Laboratory results from ChEMBL document CHEMBL3045231, “Synthesis and insecticidal activity of new pyrethroids” (2009).

What was measured:
Assay type in all cases: functional
Sitophilus zeamais [1] = test: Insecticidal activity against […] Sitophilus zeamais assessed as mortality at 5 ug/mg applied topically on thoracic tergite after 24 hr relative to control
Sitophilus zeamais [2] = test: Insecticidal activity against […] Sitophilus zeamais assessed as mortality at 5 ug/mg applied topically on thoracic tergite after 12 hr relative to control
Musca domestica [3] = test: Insecticidal activity against second-instar larval stage of Musca domestica (house fly) assessed as mortality at 5 ug/mg applied topically on thoracic tergite after 24 hr relative to control
Musca domestica [4] = test: Insecticidal activity against second-instar larval stage of Musca domestica (house fly) assessed as mortality at 5 ug/mg applied topically on thoracic tergite after 12 hr relative to control
Periplaneta americana [5] = test: Insecticidal activity against second-instar nymph stage of Periplaneta americana (American cockroach) assessed as mortality at 5 ug/mg applied topically on thoracic tergite after 24 hr (reference value: 1.7%)
Periplaneta americana [6] = test: Insecticidal activity against second-instar nymph stage of Periplaneta americana (American cockroach) assessed as mortality at 5 ug/mg applied topically on thoracic tergite after 12 hr (reference value: 1.7%)
Tuta absoluta [7] = test: Insecticidal activity against second-instar larval stage of Tuta absoluta assessed as mortality at 5 ug/mg applied topically on thoracic tergite after 24 hr (reference value: 1.7%)
Tuta absoluta [8] = test: Insecticidal activity against second-instar larval stage of Tuta absoluta assessed as mortality at 5 ug/mg applied topically on thoracic tergite after 12 hr (reference value: 1.7%)
Ascia monuste [9] = test: Insecticidal activity against second-instar larval stage of Ascia monuste orseis assessed as mortality at 5 ug/mg applied topically on thoracic tergite after 24 hr (reference value: 1.7%)
Ascia monuste [10] = test: Insecticidal activity against second-instar larval stage of Ascia monuste orseis assessed as mortality at 5 ug/mg applied topically on thoracic tergite after 12 hr relative to control

| Compound | mortality (Sitophilus zeamais [1]) [%] | mortality (Sitophilus zeamais [2]) [%] | mortality (Musca domestica [3]) [%] | mortality (Musca domestica [4]) [%] | mortality (Periplaneta americana [5]) [%] | mortality (Periplaneta americana [6]) [%] | mortality (Tuta absoluta [7]) [%] | mortality (Tuta absoluta [8]) [%] | mortality (Ascia monuste [9]) [%] | mortality (Ascia monuste [10]) [%] |
| --- | --- | --- | --- | --- | --- | --- | --- | --- | --- | --- |
| COC(=O)[C@H]1[C@H](/C=C\c2ccc([N+](=O)[O-])cc2)C1(C)C | 0 | 0 | 27.5 | 20 | 24.3 | 10.9 | 67.5 | 42.5 | 45 | 20 |
| CC1(C)C(C=C(Cl)Cl)C1C(=O)OCc1cccc(Oc2ccccc2)c1 (stereo not given) [PERMETHRIN] | 17.5 | 17.5 | 72.5 | 72.5 | 97.5 | 87.5 | 97.5 | 93.2 | 100 | 100 |
| COC(=O)[C@H]1[C@H](/C=C\c2ccccc2)C1(C)C | 12.5 | 10 | 12.5 | 7.5 | 37.4 | 15.6 | 21.9 | 12.5 | 50 | 7.5 |
| COC(=O)[C@H]1[C@H](/C=C/c2ccc(F)cc2)C1(C)C | 7.5 | 5 | 15 | 10 | 67.5 | 62.5 | 77.5 | 60 | 90 | 65 |
| COC(=O)[C@H]1[C@H](/C=C/c2ccc(Br)cc2)C1(C)C | 0 | 0 | 22.5 | 12.5 | 65 | 55 | 25 | 15 | 85 | 5 |
| COC(=O)[C@H]1[C@H](/C=C\c2ccc(Br)cc2)C1(C)C | 0 | 0 | 25 | 15 | 72.5 | 70 | 18.1 | 15.6 | 85 | 15 |
| COC(=O)[C@H]1[C@H](/C=C\c2ccc(Cl)cc2)C1(C)C | 0 | 0 | 25 | 20 | 100 | 92.5 | 100 | 100 | 90 | 85 |
| COC(=O)[C@H]1[C@H](/C=C\c2ccc(F)cc2)C1(C)C | 10 | 7.5 | 15 | 12.5 | 67.5 | 65 | 90 | 87.5 | 92.5 | 67.5 |
| COC(=O)[C@H]1[C@H](/C=C/c2ccc(Cl)cc2)C1(C)C | 0 | 0 | 22.5 | 17.5 | 95 | 87.5 | 72.5 | 67.5 | 82.5 | 80 |
| COC(=O)[C@H]1[C@H](/C=C/c2ccccc2)C1(C)C | 12.5 | 10 | 12.5 | 7.5 | 37.4 | 15.6 | 21.9 | 12.5 | 50 | 7.5 |
| COC(=O)[C@H]1[C@H](/C=C/c2ccc([N+](=O)[O-])cc2)C1(C)C | 0 | 0 | 25 | 17.5 | 20 | 10 | 55 | 35 | 36.4 | 2.5 |
